Legend:
[1] = tested on: withdrawal symptoms accompanied with addiction; conditions: e.g., alcohol abstinence-induced anxiety and convulsion; Joshi et al., J. Med. Food 2005; cited from earlier work
neuron cells = test: re-uptake of neurotransmitters by neuron cells; assay type: cell-based

O=c1c(O)c(-c2ccc(O)c(O)c2)oc2cc(O)cc(O)c12 [Quercetin]
effect on withdrawal symptoms accompanied with addiction [1]: alleviate withdrawal symptoms
re-uptake of neurotransmitters by neuron cells (neuron cells): block re-uptake of neurotransmitters by neuron cells

— patent US8507548B2, “Method for treating addiction using quercetin-containing compositions” (Quercegen Pharmaceuticals LLC, priority 2008, dated 2013)
